Source: PubChem BioAssay (NCI)
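How tested: cells in 96-well plates exposed to compound for 48 hours at five concentrations. At the TGI there is no net growth.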 Where a SMILES comes first, the peptide text is derived from it. [ ]: non-standard residue; d: D form. The star is where a group is joined. ξ: configuration not given here. NMeY = CN[C@@H](Cc1ccc(O)cc1)C(=O)O; Cbz = O=C(OCc1ccccc1)*; ξA = CC(N)C(=O)O

What was measured:
Assay in all cases: NCI tumour cell line growth inhibition, 48 h
OVCAR-3 ovarian = test system: OVCAR-3 ovarian
786-0 renal = test system: 786-0 renal
NCI-H226 lung = test system: NCI-H226 lung
SN12C renal = test system: SN12C renal
TK-10 renal = test system: TK-10 renal
K-562 leukemia = test system: K-562 leukemia
UACC-257 melanoma = test system: UACC-257 melanoma
BT-549 breast = test system: BT-549 breast
MDA-MB-435 = test system: MDA-MB-435
T-47D breast = test system: T-47D breast

Compound	TGI (OVCAR-3 ovarian)	TGI (786-0 renal)	TGI (NCI-H226 lung)	TGI (SN12C renal)	TGI (TK-10 renal)	TGI (K-562 leukemia)	TGI (UACC-257 melanoma)	TGI (BT-549 breast)	TGI (MDA-MB-435)	TGI (T-47D breast)
O=c1[nH]c(=O)n([C@H]2C[C@@H](CO)[C@@H](O)C2)cc1I	> 100 µM	> 100 µM	> 100 µM	> 100 µM	> 100 µM	> 100 µM	> 100 µM			
COc1cc2ccnc(C#N)c2cc1OCc1ccccc1	> 100 µM	> 100 µM		> 100 µM	> 100 µM	> 100 µM	> 100 µM			
O=C1CCC(=O)c2ccccc2N1	> 100 µM	> 100 µM	> 100 µM	> 100 µM	> 100 µM	> 100 µM	> 100 µM			
C1=NN2C(c3ccccc3)=NOC2C2C(c3ccccc3)=NOC12 (stereo unspecified)	> 100 µM	> 100 µM	> 100 µM		> 100 µM		> 100 µM	> 100 µM		
COc1ccc(/C(C)=C2\CCCN(Cc3ccccc3)C2)cc1	37.4 µM	33.9 µM	63.6 µM		> 100 µM	63.4 µM	86.4 µM		51.6 µM	77 µM
Cn1c2ncccc2n2c(=O)cc(O)cc12	> 100 µM	> 100 µM	> 100 µM		> 100 µM	> 100 µM	> 100 µM	> 100 µM	> 100 µM	95.7 µM
CN(C)CC1(Cc2ccccc2)CC/C(=C\c2ccccc2)C1=O (stereo unspecified)	> 100 µM	> 100 µM	> 100 µM	> 100 µM	> 100 µM	> 100 µM	> 100 µM			
CNC(=O)O/N=C1\N(C)CN(c2ccccc2)C12CCN(CCCC(=O)c1ccc(F)cc1)CC2	> 100 µM	> 100 µM	> 100 µM	> 100 µM	> 100 µM	> 100 µM	35.4 µM		> 100 µM	> 100 µM
Nc1ncnc2c1ccn2CC#CCO	> 100 µM	> 100 µM		> 100 µM	> 100 µM	> 100 µM	> 100 µM	> 100 µM	> 100 µM	> 100 µM
COc1ccc(C[C@@H](C(=O)N[C@@H](C)C(N)=O)N(C)C(=O)[C@@H]2CCCN2C(=O)[C@H](CC(C)C)NC(=O)C(C)NC(=O)OCc2ccccc2)cc1 (stereo partly specified) (Cbz-[ξA]LP[NMeY](Me)A-NH2)	> 100 µM	> 100 µM	> 100 µM	> 100 µM	> 100 µM	> 100 µM		> 100 µM	> 100 µM	> 100 µM
N#CCCC1(CCC#N)S(=O)(=O)OCCOS1(=O)=O	> 100 µM	> 100 µM	> 100 µM	> 100 µM	> 100 µM		> 100 µM	> 100 µM	> 100 µM	> 100 µM
CC(=Nc1ccc(Cl)cc1)c1ccncc1	> 100 µM	> 100 µM	> 100 µM	> 100 µM		> 100 µM	> 100 µM	> 100 µM	> 100 µM	> 100 µM
N#Cc1ccc(C2OCC3CC=CCC3CO2)cc1 (stereo unspecified)	> 100 µM	> 100 µM	> 100 µM	> 100 µM		> 100 µM	> 100 µM			
